Experiments:
LuxN F202A = details: even at 500 μM AI-1, EC50 could not be assigned
LuxN S205P = details: even at 500 μM AI-1, EC50 could not be assigned
LuxN P226T = details: even at 500 μM AI-1, EC50 could not be assigned
LuxN E233A = details: even at 500 μM AI-1, EC50 could not be assigned
[1] = system: LuxN F163A/R245L/S184N/G271D; details: quadruple mutant LuxN F163A/R245L/S184N/G271D; EC50 could not be determined
[2] = system: Chromobacterium violaceum

SMILES	Light production phenotype with AI-1 (LuxN F202A)	Light production phenotype with AI-1 (LuxN S205P)	Light production phenotype with AI-1 (LuxN P226T)	Light production phenotype with AI-1 (LuxN E233A)	Light production phenotype with AI-1 [1]	Median survival of C. elegans [2] [days]
CC(O)CC(=O)NC1CCOC1=O (stereo not drawn) [AI-1, 3-hydroxybutanoyl homoserine lactone]	dark phenotype	dark phenotype	dark phenotype	dark phenotype	constitutively bright at all AI-1 concentrations	–
N[C@H]1CCOC1=O [HSL]	–	–	–	–	–	4

— patent US9415040B2 (priority 2008, dated 2016)
